A short description of the data set: Plasma protein binding (equilibrium dialysis). The note with it: human plasma. Type of data set: in vitro ADME. The protocol:
PPB assays were carried out using the HTD 96-well equilibrium DIALYZERTM (Htdialysis, Gales Ferry, CT, USA). […] Then, the (solution A) was titrated with the (solution B) to pH 7.4 to prepare the dialysis buffer (solution C). The quench solution (solution D) consisted of Alprazolam (100 nM) and Ketoprofen (2 μM) in acetonitrile.
Total 3 μL of testing plasm samples (dissolved in DMSO, 200 μM) was mixed with 597 μL of plasma (the final concentration was 1 μM). The dialysis membranes were pre-soaked with water (60 min), then with 20% ethanol (20 min), and with dialysis buffer (20 min). Both the plasm samples and the dialysis buffer are 100 μL. Then, the dialysis plate was sealed and incubated at 37 °C with 5% CO2 at 100 rpm for 6 h. After 6 hours’ incubation, 50 μL of samples of the dialysis buffer and plasma samples were collected and re-added to a 96-well plate. Then, 50 μL of blank plasma was added to buffer samples, and 50 μL PBS was added to plasma samples. Subsequently, 300 μL quench solution was added to precipitate protein.
Peak Area Ratio buffer chamber means the conc for free fraction;
Peak Area Ratio plasma chamber means the conc for both free and bound fraction;
Peak Area Ratio total sample means the conc for starting sample before incubation.

The structures appear in SMILES notation. Where “and” joins values, the source holds several entries; their conditions need not be identical. Identical values can stand only once.

The values that follow come from PMC10891682, “In Vitro Metabolism and In Vivo Pharmacokinetics Profiles of Hydroxy-α-Sanshool” (Toxics, 2024).

For orientation: fraction unbound means free concentration divided by total concentration. Consider `CC(=O)N1CCN(c2ccc(OCC3COC(Cn4ccnc4)(c4ccc(Cl)cc4Cl)O3)cc2)CC1` (stereo not shown) [Ketoconazole], for which the “Bound (%)” value (1 μM, 6 h dialysis, 37 °C) was 98.53% and 98.53 ± 4.76%. Where the note is “6 h”, the “Remaining at 6 h (%)” value is 110.91 ± 6.04%. Where the note is “pH 7.4, 1 μM, 6 h dialysis, 37 °C”, this molecule yielded a recovery at 6 h, 1 μM of 92.6 ± 7.48%. Besides, the fraction unbound at 6 h, 1 µM (pH 7.4, 1 μM, 6 h dialysis, 37 °C, read-out: Fu (%), unbound fraction) stood at 0.0147 ± 0.0068.
